From patent US11938135B2, “Compositions and methods for treating vascular Ehlers Danlos syndrome and associated disorders” (The Johns Hopkins University, priority 2018, dated 2024)
“Also recorded” adds a separate entry of the source.

What was measured:
[1] = test system: vEDS mice, first 30 days postpartum; experiment: Postpartum survival of lactating vEDS mice (pregnancy/breastfeeding model); assay type: in vivo, mouse
Description: Previously, it was shown that pregnancy-associated aortic dissection is largely driven by lactation-associated oxytocin release and oxytocin-induced ERK signaling in MFS mouse aortas^11. Thus, oxytocin-induced ERK signaling was used as a method to test whether activation of the PLC/IP3/PKC/ERK axis would worsen the risk of aortic dissection.
Oxytocin-induced ERK signaling was used as a method to test the hypothesis that activation of the PLC/IP3/PKC/ERK axis would worsen the risk of aortic dissection.

vEDS mice = experiment: Survival of drug-treated vEDS mice (death due to aortic dissection); assay type: in vivo, mouse; details: for survival rate: after about 30 days (1 month) of treatment; for protection from dissection or death: vEDS mice, dose not stated (early data)
Description: Novel knock-in glycine substitution (Col3a1 G209S/+ and Col3a1 G938D/+) vEDS mice were created using CRISPR/Cas9.
To introduce each mutation, 3 guide RNAs (tracrRNA+crRNA) were designed to target the DNA regions flanking the intended mutation site. A DNA oligo repair template (ssDNA oligo) was also designed that included homologous sequences upstream and downstream of the target region, as well as the intended mutation. Pronuclear injection of one-cell C57BL/6J embryos was performed by the JHU Transgenic Core using standard microinjection techniques using a mix of Cas9 protein, tracrRNA, crRNA, and ssDNA oligo diluted in RNAse free injection buffer. Injected embryos were transferred into the oviducts of pseudopregnant ICR females using established techniques. Sanger sequencing of the site was utilized to confirm introduction of the mutation, and the mice were backcrossed for at least 4 generations to eliminate off-target effects. For the G209S mouse, the mutation introduced was c.625_626 GG>TC, corresponding to p.Gly210Ser in humans. For the G938D mouse, the mutation introduced was c.2813G>A, corresponding to […] in humans. The Wild-type Human Col3a1 mRNA NCBI Accession No: NM_000090.3; the wild-type Mouse Col3a1 mRNA NCBI Accession No.: NM_009930.2.
Pharmacological ERK antagonists were tested to support the role of ERK activation in the pathogenesis of vEDS and as a method to identify therapeutic strategies for vEDS. Mice were treated with cobimetinib [GDC-0973, RO5514041] (2 mg/kg/day), an FDA-approved inhibitor of MEK, the kinase that activates ERK^8. It was hypothesized that if ERK activation was truly driving disease risk, ERK inhibition would rescue the risk of death from aortic dissection.
Next, further studies were performed to test agents that inhibit PKC activation. Mice were treated with ruboxistaurin [LY 333531] […] It was hypothesized that if ERK activation, and thereby disease risk, was driven by PLC/IP3/PKC activation, a pharmacologic PKC inhibitor would also rescue the risk of death from aortic dissection.
Further studies were performed to test other medications that inhibit this signaling cascade.

[2] = Blood pressure / hemodynamic stress in treated vEDS mice; assay type: in vivo, mouse; details: for effect on blood pressure: doses as in the survival studies; for hemodynamic stress: dose not stated
129 MFS mice = experiment: Aortic root growth in Marfan syndrome mice; assay type: in vivo, mouse; details: ruboxistaurin 10 mg/kg/d, p=2E-4
Description: In examples, different PKC-β inhibitors are used for the treatment of Marfan Syndrome. For example, treatment of Marfan Syndrome may include administration of ruboxistaurin. […] In other examples, treatment of Marfan Syndrome includes administration of enzastaurin or sotrastaurin.

patients with vEDS = details: small human study; cited from earlier work
Col3a1^G209S/+ mice = experiment: Risk of aortic dissection in Col3a1 G209S/+ mice; assay type: in vivo, mouse; details: celiprolol; Col3a1 G209S/+ mutation
Description: Others have proposed^5-8 that vEDS phenotypes are a result of chronically “weak” tissue and therefore propose that decreasing blood pressure with beta-adrenergic receptor blockers should decrease the risk of aortic rupture in these patients. […] Since this was not common to all β antagonists, this observation could be driven by celiprolol's β2 agonism activity.

MFS mice = details: cited from earlier work

## CC(C)NCC(O)COc1cccc2ccccc12 (stereo not drawn) [propranolol]
[1]; propranolol, after 30 days postpartum, vs. 50% survival
  survival postpartum: 46%
[1]; propranolol, first 30 days postpartum, mice still lactating
  effect on postpartum survival: does not improve survival; also recorded: did not affect survival
vEDS mice; propranolol 80 mg/kg/d
  improvement in survival: none of these manipulations lead to an improvement in survival
[2]
  effect on blood pressure: lowers blood pressure; also recorded: decreases in blood pressure

## COC(=O)c1ccc2c(c1)NC(=O)/C2=C(\Nc1ccc(N(C)C(=O)CN2CCN(C)CC2)cc1)c1ccccc1 [nintedanib]
vEDS mice; nintedanib 50 mg/kg/d
  impact on survival: no impact on survival

## CC(=O)S[C@@H]1CC2=CC(=O)CC[C@]2(C)[C@H]2CC[C@@]3(C)[C@@H](CC[C@@]34CCC(=O)O4)[C@H]12 [spironolactone]
vEDS mice; spironolactone alone 100 mg/kg/d
  survival: ~80%

## CC(C)NCC(O)COc1ccc(CC(N)=O)cc1 (stereo not drawn) [atenolol]
vEDS mice; atenolol 120 mg/kg/d
  improvement in survival: none of these manipulations lead to an improvement in survival
[2]
  effect on blood pressure: decreases in blood pressure

## des Gly-NH2,d(CH2)5[D-Tyr2,Thr4]OVT
[1]; oxytocin receptor antagonist, first 30 days postpartum, mice still lactating
  survival postpartum: 95%

## O=C(c1ccc(F)c(F)c1Nc1ccc(I)cc1F)N1CC(O)([C@@H]2CCCCN2)C1 [cobimetinib]
vEDS mice; cobimetinib 2 mg/kg/day, after 45 days of treatment, 55% survival with no treatment
  survival: 94%
[2]
  effect on blood pressure: Neither cobimetinib nor ruboxistaurin had an effect on blood pressure

## Cn1cc(C2=C(c3cn(C4CCN(Cc5ccccn5)CC4)c4ccccc34)C(=O)NC2=O)c2ccccc21 [enzastaurin, 3-(1-Methylindol-3-yl)-4-[1-[1-(pyridin-2-ylmethyl)piperidin-4-yl]indol-3-yl]pyrrole-2,5-dione]
vEDS mice; enzastaurin 60 mg/kg/d, after 40 days of treatment, 50% of untreated vEDS mice, p=0.0305
  survival: 80%
vEDS mice; enzastaurin about 30 mg/kg/day orally
  survival rate: about 100%

## NNc1nncc2ccccc12 [hydralazine]
[1]; hydralazine 16 mg/kg/day, first 30 days postpartum, 60% lethality untreated
  survival postpartum: 95%
vEDS mice; hydralazine 32 mg/kg/d, at 45 days of age, the median survival for an untreated vEDS mouse
  survival: 98%
vEDS mice; hydralazine-only (32 mg/kg/d) treated male mice
  survival in male mice: 24%

## CC(=O)Nc1cccc(-n2c(=O)n(C3CC3)c(=O)c3c(Nc4ccc(I)cc4F)n(C)c(=O)c(C)c32)c1 [trametinib]
[1]; trametinib 1 mg/kg/day, first 30 days postpartum, 60% lethality untreated
  survival postpartum: 95%

## CCOC(=O)N[C@@H]1CC[C@@H]2[C@@H](C1)C[C@H]1C(=O)O[C@H](C)[C@H]1[C@H]2/C=C/c1ccc(-c2cccc(F)c2)cn1 [vorapraxar]
vEDS mice; vorapraxar 1 mg/kg/d
  impact on survival: no impact on survival

## CN(C)C[C@@H]1CCn2cc(c3ccccc32)C2=C(C(=O)NC2=O)c2cn(c3ccccc23)CCO1 [ruboxistaurin, (9S)-9-[(dimethylamino)methyl]-6,7,10,11-tetrahydro-9H,18H-5,21:12,17-di(metheno)dibenzo[e,k]pyrrolo[3,4-h][1,4,13]oxadiazacyclohexadecine-18,20-dione]
vEDS mice; ruboxistaurin 10 mg/kg/day, after 39 days of treatment, 55% survival with no treatment
  survival: 100%
129 MFS mice
  aortic root growth: reduces aortic root growth; also recorded: rescued the aortic root growth
[2]
  effect on blood pressure: Neither cobimetinib nor ruboxistaurin had an effect on blood pressure

## CCN(CC)C(=O)Nc1ccc(OCC(O)CNC(C)(C)C)c(C(C)=O)c1 (stereo not drawn) [celiprolol]
Patients with vEDS
  adverse events in patients with vEDS: potential to delay adverse events
Col3a1^G209S/+ mice
  risk of aortic dissection: increased risk of aortic dissection
vEDS mice; celiprolol 200 mg/kg/d
  improvement in survival: none of these manipulations lead to an improvement in survival
vEDS mice; celiprolol 200 mg/kg/d, vEDS mouse models
  risk of aortic dissection: accelerated the risk of aortic dissection
vEDS mice
  protection from dissection or death: significant acceleration of dissection and death
[2]
  hemodynamic stress: achieved the predicted lowering of hemodynamic stress
  effect on blood pressure: decreases in blood pressure

## CCCCc1nc(Cl)c(CO)n1Cc1ccc(-c2ccccc2-c2nn[nH]n2)cc1 [losartan]
vEDS mice; losartan 60 mg/kg/d
  impact on survival: no impact on survival
vEDS mice
  protection from dissection or death: no evidence of protection from dissection or death
MFS mice; MFS mice, literature refs 3-6
  aortic disease in MFS mice: can suppress aortic disease
MFS mice; mouse models of MFS or LDS
  protection in mouse models of MFS or LDS: afford dramatic protection
[2]
  hemodynamic stress: achieved the predicted lowering of hemodynamic stress

## COc1ccccc1Oc1c(NS(=O)(=O)c2ccc(C(C)(C)C)cc2)nc(-c2ncccn2)nc1OCCO [bosentan]
vEDS mice; bosentan 100 mg/kg/d, after 40 days of treatment, 50% survival in untreated vEDS mice, p=0.0298
  survival: 80%

## CC(O)(CS(=O)(=O)c1ccc(F)cc1)C(=O)Nc1ccc(C#N)c(C(F)(F)F)c1 (stereo not drawn) [bicalutamide]
vEDS mice; bicalutamide alone, male mice
  survival in male mice: ~80%

## CN1CCN(c2nc(C3=C(c4c[nH]c5ccccc45)C(=O)NC3=O)c3ccccc3n2)CC1 [sotrastaurin]
vEDS mice; sotrastaurin about 30 mg/kg/day orally
  survival rate: about 100%
